From the NIST ThermoML archive (doi:10.1021/acs.jced.8b00229)

Details: Liquid, Vibrating tube method

C=CCCCCC [1-heptene]
Details	mass density [kg/m3]
283.52 K, 15000 kPa	718.3
283.52 K, 20000 kPa	722.2
283.52 K, 25000 kPa	725.9
283.52 K, 30000 kPa	729.4
283.52 K, 35000 kPa	732.9
283.52 K, 40000 kPa	736.1
283.52 K, 55000 kPa	745.3
283.53 K, 100 kPa	705.5
283.53 K, 500 kPa	705.9
283.53 K, 1000 kPa	706.4
283.53 K, 3000 kPa	708.2
283.53 K, 5000 kPa	710
283.53 K, 10000 kPa	714.3
283.53 K, 45000 kPa	739.3
283.53 K, 50000 kPa	742.4
283.53 K, 60000 kPa	748.2
283.53 K, 80000 kPa	759
283.53 K, 90000 kPa	763.9
283.54 K, 70000 kPa	753.8
283.54 K, 100000 kPa	768.7
293.45 K, 100 kPa	697
293.45 K, 500 kPa	697.4
293.45 K, 1000 kPa	697.9
293.45 K, 5000 kPa	701.8
293.45 K, 20000 kPa	714.8
293.45 K, 25000 kPa	718.7
293.45 K, 30000 kPa	722.4
293.45 K, 35000 kPa	726
293.45 K, 55000 kPa	739
293.45 K, 60000 kPa	742
293.45 K, 70000 kPa	747.8
293.45 K, 80000 kPa	753.2
293.45 K, 90000 kPa	758.3
293.45 K, 100000 kPa	763.1
293.46 K, 3000 kPa	699.9
293.46 K, 10000 kPa	706.4
293.46 K, 15000 kPa	710.7
293.46 K, 40000 kPa	729.4
293.46 K, 45000 kPa	732.8
293.46 K, 50000 kPa	736
303.37 K, 100 kPa	688.4
303.37 K, 500 kPa	688.9
303.37 K, 55000 kPa	732.8
303.37 K, 100000 kPa	757.7
303.38 K, 1000 kPa	689.5
303.38 K, 3000 kPa	691.6
303.38 K, 5000 kPa	693.6
303.38 K, 10000 kPa	698.5
303.38 K, 15000 kPa	703.1
303.38 K, 20000 kPa	707.4
303.38 K, 25000 kPa	711.5
303.38 K, 30000 kPa	715.4
303.38 K, 35000 kPa	719.2
303.38 K, 40000 kPa	722.8
303.38 K, 45000 kPa	726.2
303.38 K, 50000 kPa	729.5
303.38 K, 60000 kPa	735.9
303.38 K, 70000 kPa	741.8
303.38 K, 80000 kPa	747.4
303.38 K, 90000 kPa	752.6
313.29 K, 100 kPa	680.6
313.3 K, 500 kPa	681.1
313.3 K, 5000 kPa	686.2
313.3 K, 20000 kPa	700.9
313.3 K, 25000 kPa	705.2
313.3 K, 30000 kPa	709.3
313.3 K, 35000 kPa	713.3
313.3 K, 40000 kPa	717
313.3 K, 45000 kPa	720.6
313.3 K, 50000 kPa	724
313.3 K, 55000 kPa	727.4
313.3 K, 60000 kPa	730.6
313.3 K, 70000 kPa	736.8
313.3 K, 80000 kPa	742.6
313.3 K, 90000 kPa	748
313.3 K, 100000 kPa	753.1
313.31 K, 1000 kPa	681.8
313.31 K, 3000 kPa	684
313.31 K, 10000 kPa	691.3
313.31 K, 15000 kPa	696.3
323.18 K, 100 kPa	670.5
323.18 K, 500 kPa	671
323.18 K, 1000 kPa	671.6
323.18 K, 3000 kPa	674.1
323.18 K, 10000 kPa	682
323.18 K, 25000 kPa	696.6
323.18 K, 30000 kPa	700.9
323.18 K, 35000 kPa	705
323.18 K, 40000 kPa	708.9
323.18 K, 45000 kPa	712.7
323.18 K, 50000 kPa	716.3
323.18 K, 55000 kPa	719.7
323.18 K, 60000 kPa	723.1
323.18 K, 70000 kPa	729.6
323.18 K, 80000 kPa	735.5
323.19 K, 5000 kPa	676.4
323.19 K, 15000 kPa	687.1
323.19 K, 20000 kPa	692
323.19 K, 90000 kPa	741.1
323.19 K, 100000 kPa	746.4
333.04 K, 100 kPa	661.5
333.04 K, 500 kPa	662
333.04 K, 1000 kPa	662.7
333.05 K, 3000 kPa	665.3
333.05 K, 5000 kPa	667.9
333.05 K, 10000 kPa	673.8
333.05 K, 15000 kPa	679.3
333.05 K, 20000 kPa	684.5
333.05 K, 25000 kPa	689.3
333.05 K, 30000 kPa	693.8
333.05 K, 35000 kPa	698.1
333.05 K, 40000 kPa	702.2
333.05 K, 45000 kPa	706.2
333.05 K, 50000 kPa	709.9
333.05 K, 55000 kPa	713.5
333.05 K, 60000 kPa	717
333.05 K, 70000 kPa	723.7
333.05 K, 80000 kPa	729.9
333.05 K, 90000 kPa	735.7
333.05 K, 100000 kPa	741.1
342.91 K, 100 kPa	652.7
342.91 K, 500 kPa	653.3
342.91 K, 1000 kPa	654
342.91 K, 3000 kPa	656.9
342.91 K, 15000 kPa	671.8
342.91 K, 30000 kPa	687.1
342.91 K, 35000 kPa	691.7
342.92 K, 5000 kPa	659.6
342.92 K, 10000 kPa	666
342.92 K, 20000 kPa	677.4
342.92 K, 25000 kPa	682.4
342.92 K, 40000 kPa	696
342.92 K, 45000 kPa	700.1
342.92 K, 50000 kPa	703.9
342.92 K, 55000 kPa	707.7
342.92 K, 60000 kPa	711.3
342.92 K, 70000 kPa	718.3
342.92 K, 80000 kPa	724.6
342.92 K, 90000 kPa	730.6
342.92 K, 100000 kPa	736.2
352.8 K, 100 kPa	644.3
352.8 K, 500 kPa	644.9
352.8 K, 40000 kPa	690
352.8 K, 45000 kPa	694.3
352.8 K, 50000 kPa	698.4
352.8 K, 70000 kPa	713.2
352.8 K, 80000 kPa	719.7
352.8 K, 90000 kPa	725.9
352.8 K, 100000 kPa	731.7
352.81 K, 1000 kPa	645.7
352.81 K, 3000 kPa	648.8
352.81 K, 5000 kPa	651.6
352.81 K, 10000 kPa	658.4
352.81 K, 15000 kPa	664.7
352.81 K, 20000 kPa	670.5
352.81 K, 25000 kPa	675.8
352.81 K, 30000 kPa	680.9
352.81 K, 35000 kPa	685.6
352.81 K, 55000 kPa	702.3
352.81 K, 60000 kPa	706
362.68 K, 100 kPa	633.6
362.68 K, 500 kPa	634.3
362.68 K, 100000 kPa	725.7
362.69 K, 1000 kPa	635
362.69 K, 3000 kPa	638.5
362.69 K, 5000 kPa	641.7
362.69 K, 20000 kPa	661.9
362.69 K, 30000 kPa	672.8
362.69 K, 35000 kPa	677.8
362.69 K, 40000 kPa	682.5
362.69 K, 45000 kPa	687
362.69 K, 50000 kPa	691.2
362.69 K, 55000 kPa	695.2
362.69 K, 60000 kPa	699.1
362.69 K, 70000 kPa	706.6
362.69 K, 80000 kPa	713.4
362.69 K, 90000 kPa	719.7
362.7 K, 10000 kPa	649.1
362.7 K, 15000 kPa	655.8
362.7 K, 25000 kPa	667.6
